Target: T1, serine racemase (SRR) (Homo sapiens, UniProt Q9GZT4)
T1 construct: SRR Enzyme Human Recombinant (ENZ-232, ProSpec)
T1 sequence (Q9GZT4 1-340): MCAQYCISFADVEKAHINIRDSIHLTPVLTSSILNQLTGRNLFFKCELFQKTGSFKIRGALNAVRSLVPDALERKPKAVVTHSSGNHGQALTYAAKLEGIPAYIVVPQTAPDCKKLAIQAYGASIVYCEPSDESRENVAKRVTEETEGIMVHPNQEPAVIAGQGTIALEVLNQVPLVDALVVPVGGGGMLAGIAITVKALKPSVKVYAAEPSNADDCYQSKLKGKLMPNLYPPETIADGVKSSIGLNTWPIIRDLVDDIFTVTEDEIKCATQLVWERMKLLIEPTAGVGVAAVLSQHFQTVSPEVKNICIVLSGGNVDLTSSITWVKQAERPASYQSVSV
Experiment: recombinant SRR racemization of L-serine, D-serine read by coupled DAAO/HRP luminol luminescence (activation)
Assay type: biochemical

NC(CSc1nc2ccccn2c1[N+](=O)[O-])C(=O)O (stereo not shown) [NSC294149, 2-amino-3-(3-nitroimidazo[1,2-a]pyridin-2-yl)sulfanylpropanoic acid]
% increase of SRR activity: 200 % increase of SRR activity

Source: publication PMC9962741, “In Silico and In Vitro Screening of Serine Racemase Agonist and In Vivo Efficacy on Alzheimer’s Disease Drosophila melanogaster” (Pharmaceuticals, 2023)
